# Reference: patent US9624215B2, “Amine derivative or salt thereof” (TOYAMA CHEMICAL CO., LTD., priority 2012, dated 2017)
# Test system: normal human neonatal foreskin epidermal keratinocytes (NHEK-F)
# Assay: Cell proliferation inhibition test
# Assay type: cell-based
# Settings: Keratinocyte, 72 h, NHEK-F cells, three days incubation, ATPlite or CellTiterGlo, read-out: IC50 (concentration of the compound at which the cell count is reduced by 50%)
# Method: 2×10^3 normal human neonatal foreskin epidermal keratinocytes (NHEK-F) (Kurabo, KK-4009) were suspended in 100 μL of Humedia-EG2 (Kurabo, KK-2150S) medium, plated in a 96-well plate and incubated overnight. The test compound was added on the following day and the cells were incubated for further three days. The cell count was determined using ATPlite (PerkinElmer, 6016739) or CellTiterGlo (Promega, G7573).
# The inhibition rate was calculated from the following formula to determine the concentration of the compound at which the cell count is reduced by 50% (IC50). Inhibition rate (%)=100−(cell count in the presence of test compound/cell count in the absence of test compound)×100
row,Structure (SMILES),IC50
1,"N#Cc1ccccc1Cn1ccc2cc(Nc3ncc(C4CC4)cc3C(=O)O)ccc21 [Example 452, 2-((1-(2-cyanobenzyl)-1H-indol-5-yl)amino)-5-cyclopropylnicotinic acid]",10 to 100 nM
2,"COCCN(C)c1cccc(Cn2ccc3cc(Nc4ncc(C5CC5)cc4C(=O)O)ccc32)c1 [Example 511, 5-cyclopropyl-2-((1-(3-((2-methoxyethyl)(methyl)amino)benzyl)-1H-indol-5-yl)amino)nicotinic acid]",≤ 10 nM
3,"Cn1ccc2cc(Nc3ncc(C4CC4)cc3C(=O)O)cc(-c3cc(F)ccc3F)c21 [Example 590, 5-cyclopropyl-2-((7-(2,5-difluorophenyl)-1-methyl-1H-indol-5-yl)amino)nicotinic acid]",≤ 10 nM
4,"O=C(O)c1cc(Cl)ccc1Nc1ccc2c(ccn2Cc2ccccn2)c1 [Example 341, 5-chloro-2-((1-(pyridin-2-ylmethyl)-1H-indol-5-yl)amino)benzoic acid]",10 to 100 nM
5,"Cn1ccc2cc(Nc3ncc(C4CC4)cc3C(=O)O)cc(C3CCCCC3)c21 [Example 607, 2-((7-cyclohexyl-1-methyl-1H-indol-5-yl)amino)-5-cyclopropylnicotinic acid]",≤ 10 nM
6,"O=C(O)c1cc(C2CC2)cnc1Nc1cccc2c(=O)n(-c3ccccc3)cnc12 [Example 369, 5-cyclopropyl-2-((4-oxo-3-phenyl-3,4-dihydroquinazolin-8-yl)amino)nicotinic acid]",100 to 1000 nM
7,"O=C(O)c1cc(C2CC2)cnc1Nc1cccc2c1ccn2CC1CCCCC1 [Example 429, 2-((1-(cyclohexylmethyl)-1H-indol-4-yl)amino)-5-cyclopropylnicotinic acid]",≤ 10 nM
8,"O=C(O)c1cc(C2CC2)ccc1Nc1cccc2c1ccc(=O)n2-c1ccccc1 [Example 539, 5-cyclopropyl-2-((2-oxo-1-phenyl-1,2-dihydroquinolin-5-yl)amino)benzoic acid]",≤ 10 nM
9,"O=C(O)c1cc(Cl)ccc1Nc1ccc2c(ccn2-c2ccncc2)c1 [Example 315, 5-chloro-2-((1-(pyridin-4-yl)-1H-indol-5-yl)amino)benzoic acid]",10 to 100 nM
10,"O=C(O)c1cc(C2CC2)cnc1Nc1ccc2c(-c3ccccc3)cccc2c1 [Example 177, 5-cyclopropyl-2-((5-phenylnaphthalen-2-yl)amino)nicotinic acid]",≤ 10 nM
11,"N#Cc1ccc(Cn2ccc3cc(Nc4ncc(C5CC5)cc4C(=O)O)ccc32)cc1 [Example 454, 2-((1-(4-cyanobenzyl)-1H-indol-5-yl)amino)-5-cyclopropylnicotinic acid]",10 to 100 nM
12,"O=C(O)c1cc(C2CC2)cnc1Nc1ccc2c(c1)Cc1ccccc1-2 [Example 405, 2-((9H-fluoren-2-yl)amino)-5-cyclopropylnicotinic acid]",10 to 100 nM
13,"CS(=O)(=O)NC(=O)c1cc(C2CC2)cnc1Nc1ccc2c(ccn2-c2ccccc2)c1 [Example 159, 5-cyclopropyl-N-(methylsulfonyl)-2-((1-phenyl-1H-indol-5-yl)amino)nicotinamide]",10 to 100 nM
14,"CCOCCCc1cc(Nc2ncc(C3CC3)cc2C(=O)O)cc2ccn(C)c12 [Example 603, 5-cyclopropyl-2-((7-(3-ethoxypropyl)-1-methyl-1H-indol-5-yl)amino)nicotinic acid]",10 to 100 nM
15,"Cn1cc(-c2ccccc2)c2cc(Nc3ncc(Cl)cc3C(=O)O)ccc21 [Example 647, 5-chloro-2-((1-methyl-3-phenyl-1H-indol-5-yl)amino)nicotinic acid]",10 to 100 nM
16,"Cn1ccc2cc(Nc3ncc(C4CC4)cc3C(=O)O)cc(-c3ccccc3OC(F)(F)F)c21 [Example 491, 5-cyclopropyl-2-((1-methyl-7-(2-(trifluoromethoxy)phenyl)-1H-indol-5-yl)amino)nicotinic acid]",≤ 10 nM
17,"O=C(O)c1cc(C2CC2)cnc1Nc1ccc2c(cnn2Cc2ccccc2)c1 [Example 395, 2-((1-benzyl-1H-indazol-5-yl)amino)-5-cyclopropylnicotinic acid]",10 to 100 nM
